Five compounds from patent US5428058A, “Phospholipase A2 inhibitors” (American Home Products Corporation, priority 1994, dated 1995) can be followed below.

pIC50: −log10 of the molar value. Several values for one entry are separate records, joined by “and”; a condition that tells them apart may be missing. Identical values can stand only once.

The test system of assay [1] is tetradecanoylphorbol acetate (TPA) induced ear edema. Put plainly: tetradecanoylphorbol acetate (TPA) induced ear edema in mice. In kind it is in vivo, mouse (Webster). The following applies: for Percent Inhibition TPA Ear Edema: 30 min after TPA, measured 4 hrs after TPA. Also noted: activity in TPA ear edema test: dose or concentration left out as unconfirmed. As for the experimental part:
Representative compounds of this invention were evaluated in an in vivo standard pharmacological test procedure that measured the effect of the representative compounds on dermal inflammation, as measured by the prevention of tetradecanoylphorbol acetate (TPA) induced car edema in Webster mice. This test procedure was carried out as follows.
Mice were placed into plastic boxes in groups of six. Eight groups of mice received TPA topically on the right ear. TPA was dissolved in acetone at a concentration of 100 ug/ml. TPA was applied to the right ear by the means of an automatic pipette. Volumes of 10 ul were applied to the inner and outer surfaces of the ear. Each mouse received 2 ug/ear TPA. The left ear (control) received acetone delivered in the same manner. The compounds to be evaluated were given orally 30 min after treatment with TPA.
Measurements were taken with Oditest calipers, 0-10 mm with 0.01 graduations. The right and left cars were measured 4 hrs after TPA-induced inflammation.
The difference between right and left car thickness was calculated and the significance was determined by a one way analysis of variance with Dunnet's comparisons to control (P=0.05). Drug effects are expressed as a percent change from control values according to the following formula. [formula]

In assay [2] the target is T1, 5-lipoxygenase (Mus musculus, UniProt P48999).
T1 construct: Resident peritoneal macrophages were collected from female Swiss Webster mice; endogenous in cells; host or cells: resident peritoneal macrophages of female Swiss Webster mice
T1 sequence (P48999 1-674): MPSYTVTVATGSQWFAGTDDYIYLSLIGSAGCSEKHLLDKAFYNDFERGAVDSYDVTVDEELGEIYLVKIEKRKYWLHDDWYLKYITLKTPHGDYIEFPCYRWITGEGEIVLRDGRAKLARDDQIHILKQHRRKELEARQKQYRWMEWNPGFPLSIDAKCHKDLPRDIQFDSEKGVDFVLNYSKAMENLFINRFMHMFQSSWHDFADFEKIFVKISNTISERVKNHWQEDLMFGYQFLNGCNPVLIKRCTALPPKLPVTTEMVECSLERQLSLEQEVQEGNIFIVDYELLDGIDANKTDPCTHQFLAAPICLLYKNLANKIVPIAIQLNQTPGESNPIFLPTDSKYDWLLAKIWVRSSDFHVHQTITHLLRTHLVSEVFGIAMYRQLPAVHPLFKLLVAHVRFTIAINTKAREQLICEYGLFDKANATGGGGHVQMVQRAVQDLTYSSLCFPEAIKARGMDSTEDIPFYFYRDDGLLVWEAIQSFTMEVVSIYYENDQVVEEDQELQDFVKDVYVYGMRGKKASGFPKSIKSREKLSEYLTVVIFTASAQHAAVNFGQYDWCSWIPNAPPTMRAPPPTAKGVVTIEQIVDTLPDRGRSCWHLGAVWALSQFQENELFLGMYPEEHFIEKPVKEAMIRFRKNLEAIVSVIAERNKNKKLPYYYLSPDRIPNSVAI
Put plainly: 5-lipoxygenase inhibition (LTC4 production) in resident murine peritoneal macrophages. Type of assay: cell-based, mouse (Swiss Webster). As to the method: (§1) The ability of the compounds of the invention to act as inhibitors of the enzymes 5-lipoxygenase and cyclooxygenase was evaluated in the resident murine peritoneal macrophage standard pharmacological test procedure. This test procedure was carried out as follows.
(§2) Resident peritoneal macrophages were collected from female Swiss Webster mice (49 days old, 20-25 gms, Buckshire) by lavaging with 7-8 ml Hanks Balanced Salt Solution (HBSS) without Ca^++ and Mg^++ (GIBCO). The lavage fluid from several mice was pooled and centrifuged at 4° C. for 10 minutes at 400 xg. The cell pellet was resuspended in Medium 199 (GIBCO) with HEPES buffer containing 100 μg/ml gentamicin. Two ml of the cell suspension (4×10^6 cells) were then plated on 35 mm culture dishes (Nunc).
A macrophage monolayer was established after a 1-1.5 hour incubation of the cells at 37° C. in an atmosphere of […] and 5% CO2. The monolayers were washed 2× with 2 ml HBDSS, containing Ca^++ and Mg^++ after which 2 ml Medium 199 supplemented with 10% freshly thawed heat-inactivated fetal bovine serum and 100 μg/ml gentamicin was added for an overnight incubation.
Residual serum and cellular debris were removed from the monolayers by washing 3× with 2 ml HBSS containing Ca^++ and Mg^++. Macrophages were preincubated for 5 minutes with 1 ml serum-free M199 containing 10 μl dimethyl sulfoxide (DMSO) vehicle or test compound prior to cell activation with zymosan ([…]) or arachidonic acid (AA) (2 μM). After 2 hours, the supernatants were removed and either assayed for LTC4 and PGE2 by radioimmunoassay (RIA) directly or stored at -20° C. In all cases, results are expressed as ng metabolite/4×10^6 cells.
Calculations: The raw data were converted to ng metabolite/4-10^6 cells using a standard curve. Results were then expressed as percent inhibition of zymosan induced, leukotriene or prostaglandin synthesis (control) using the following equation: [formula] REFERENCE COMPOUNDS: The compounds used are listed below.

The test system of assay [3] is cyclooxygenase. Put plainly: cyclooxygenase inhibition (PGE2 production) in resident murine peritoneal macrophages. The conditions noted are these: dose 0.5 μM; mouse macrophages, zymosan induced. Type of assay: cell-based, mouse (Swiss Webster). As to the method: as §1, §2
A macrophage monolayer was established after a 1-1.5 hour incubation of the cells at 37° C. in an atmosphere of […] and 5% CO2. […]
Residual serum and cellular debris were removed from the monolayers by washing 3× with 2 ml HBSS containing Ca^++ and Mg^++. […] In all cases, results are expressed as ng metabolite/4×10^6 cells.
Calculations: The raw data were converted to ng metabolite/4-10^6 cells using a standard curve. Results were then expressed as percent inhibition of zymosan induced, leukotriene or prostaglandin synthesis (control) using the following equation: [formula] […]

[4] abbreviates: mouse macrophages, zymosan induced.
[5] abbreviates: dose 0.1 μM, mouse macrophages, zymosan induced.

As a reminder, the ED50 is the dose at which the effect has come halfway, by size or by number of responders. As usually defined, the inhibition is the relative decrease from the control value, in per cent. One may read the pIC50 as the negative decadic logarithm of the IC50, by convention in mol/L.

Turning to `NC1=NN(c2cccc(C(F)(F)F)c2)CC1` [BW 755c, reference compound], the ED50 in assay [1] (Mus musculus, 4 h, oral, TPA-induced ear edema, mice) turned out to be 88 mg/kg.
In assay [2] (setting [4]), `O=C(CC[C@@H]1CC[C@H]2CCCC[C@@H]2C1)C1=C(O)COC1=O` (relative stereo) [Example 1, 3-[3-[(2α,4aα,8aβ)-Decahydro-naphthalene-2-yl]-propionyl]-4-hydroxy-2-(5H) -furanone] returned an inhibition at 0.5 µM of 59%. For the same compound, the “PGE2 % Inhibition” value in assay [3] is on record as 54%. For the same compound, the “Percent Inhibition TPA Ear Edema” value in assay [1] (80 mg/kg p.o.) is given as 19%; in assay [1] (160 mg/kg p.o.) it was 49%.
With `CCCCCC#CCC#CCC#CCC#CCCCC(=O)O` [ETYA, reference compound], in assay [2], the pIC50 is 6.36.
As for `O=C(CC[C@@H]1CC[C@H]2CCCC[C@@H]2C1)C1=C(O)CSC1=O` (relative stereo) [Example 2, 3-[3-[(2α,4aα,8aβ)-Decahydro-naphthalene-2-yl]-propionyl]-4-hydroxy-2-(5H)thiophenone], in assay [2] (setting [5]), the “LTC4 % Inhibition” value turned out to be 37%. This compound also yielded an inhibition at 0.1 µM in assay [2] (setting [5]) of 43%. In assay [2] (setting [4]), 0.5 µM produced 92% inhibition. The “PGE2 % Inhibition” value in assay [3] is 80% and 85%. Further, the “Percent Inhibition TPA Ear Edema” value in assay [1] (80 mg/kg p.o.) is on record as 21%; in assay [1] (160 mg/kg p.o.) it was 66%.
Turning to `COc1ccc2c(c1)c(CC(=O)O)c(C)n2C(=O)c1ccc(Cl)cc1` [Indomethacin, reference compound], in assay [1], the “activity in TPA ear edema test” value was “inactive”.
